Bridge positions count the residues as written; N and C are the ends. Ends that are not written are not given here.
Legend:
breast cancer cells [1] = experiment: Trypan blue cell death assay, breast cancer cells; format: cell-based; conditions: 100 ug/ml
Description: (§1) The hCG preparations, fractions of the early pregnancy urine and hCG APL™ SUPERDEX™ 200 fractionations (described herein), and certain β-hCG peptides were tested on prostate, lung, breast, and kidney cancer cells in vitro, and on prostate tumors in nude mice. […] The preparations fractions and peptides were also assayed using a clonogenic assay in which cells were seeded in methylcellulose in the presence or absence of test substance and then colonies were counted after a certain period of time. Cells were also examined for apoptosis by confocal microscopy.
The effects of hCG preparations, hCG fractions and β-hCG peptides were also tested in breast cancer cells in vitro. Breast cancer cells were incubated with the hCG preparations, hCG fractions and β-hCG peptides in both the trypan blue viability assay and the clonogenic assay.

lung cancer cells [2] = experiment: Apoptosis by confocal microscopy, lung cancer cells; format: cell-based; conditions: 48 hours
Description: (§2) The preparations fractions and peptides were also assayed using a clonogenic assay in which cells were seeded in methylcellulose in the presence or absence of test substance and then colonies were counted after a certain period of time. Cells were also examined for apoptosis by confocal microscopy. FIGS. 23A-F show confocal micrograms of lung cancer cells treated with the hCG or hCG related preparation and then stained with FITC labelled actin monoclonal antibody to visualize the cytoskeleton and propidium iodine to visualize the cells nucleus. Condensation of the nucleus and damage to the cytoskeleton are indications of apoptosis.

lung cancer cells [3] = experiment: Clonogenic assay, lung cancer cells; format: cell-based; conditions: compared to PBS alone
Description: as §1

prostate cancer cells [4] = experiment: Prostate cancers induced in nude mice; format: in vivo; conditions: peptide 200 μg per day, hCG APL 100 IU per day, systemic
breast cancer cells [5] = experiment: Clonogenic assay, breast cancer cells; format: cell-based; conditions: 100 ug/ml
Description: as §1
The hCG preparation, hCG fractions and β-hCG peptides were also tested for the inhibition of breast cancer cell colony formation in the clonogenic assay.

HIV-1 transgenic mice = experiment: Survival, growth and weight of HIV-1 transgenic mouse pups; format: in vivo
Description: The HIV-1 transgenic mice used for this study contain 7.4 kb of foreign DNA, including 5.1 kb of the HIV-1 proviral genome deleted in the gag and pol genes and 2.3 kb of vector (Dickie et al., 1991, Virology 185:109-119). […] In addition, these mice develop severe hyperkeratotic skin lesions with marked expression of gp 120 and nef genes (Kopp et al., 1993, AIDS Res. Hum. Retroviruses 9:267-275; Vasli et al., 1994, AIDS Res. Hum. Retroviruses 10:1241-1250).
Finally, certain fractions were tested for their ability to increase survival, promote weight gain and reduce HIV-1 gene expression in HIV-1 transgenic mice as described herein.
HIV-I transgenic pups administered hCG and hCG-related preparations for the first 5 days after birth through the mothers milk were monitored for survival at 10 days after birth.

prostate cancer cells [6] = experiment: Apoptosis by confocal microscopy, prostate cancer cells; format: cell-based; conditions: 48 hours
Description: as §2, with “FIGS. 18A-H” for “FIGS. 23A-F”, “confocal micrographs” for “confocal micrograms”, “of prostate” for “of lung”, “with an” for “with the”, “with FITC-labelled” for “with FITC labelled”, “the cell” for “the cells”

KS Y-1 and KS-SLK cells = experiment: Kaposi's Sarcoma clonogenic assay in cultured cells; format: cell-based, human; conditions: for inhibition of KS cell growth in clonogenic assays (in words): KS Y-1 and KS SLK
Method in brief: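 KS Y-1 or KS-SLK cells, 5×10^4 seeded in 0.8% methylcellulose, grown 10 days with or without hCG, β-hCG or β-hCG peptide preparations; well-formed colonies counted in triplicate wells.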

4. Circ 44-57: β-hCG 44-57 with cysteine substituted at position 44, circularized via disulfide bond (SEQ ID NO:26) (CLQGVLPALPQVVC; disulfide 1-14 (inferred))
% dead cells (breast cancer cells [1]): 42%
inhibition of HIV-1 infection/replication in vitro (in words) (HIV-1): inhibit HIV-1 replication in vitro
HIV in vitro Inhibition (HIV-1; inhibition of HIV-1 replication in vitro (HIV-1 strains and HIV-1 primary isolates)): +++ (“+++” represents greater than 70% effect)
apoptosis (lung cancer cells [2]): increased apoptosis
colony formation (lung cancer cells [3]): inhibited colony formation
apoptosis of prostate cancer cells in vivo (prostate cancer cells [4]): caused apoptosis of the prostate cancer cells in vivo
% inhibition (colony formation) (breast cancer cells [5]): 45%
weight gain / growth retardation and cachexia (HIV-1 transgenic mice; HIV-1 transgenic pups): higher weight gain than untreated mice
survival at 10 days after birth (HIV-1 transgenic mice; administered first 5 days after birth through mothers milk): promote survival
apoptosis (prostate cancer cells [6]): increased apoptosis
inhibition of KS cell growth in clonogenic assays (in words) (KS Y-1 and KS-SLK cells; listed as cyclic 44-57): strongest anti-tumor effects
inhibition of KS cell growth in clonogenic assays (in words) (KS Y-1 and KS-SLK cells; listed as cyclized β-hCG peptide of amino acids 44-57): inhibited KS cell growth
KS in vitro (KS Y-1 and KS-SLK cells; inhibition of Kaposi's Sarcoma cell growth in vitro in cultured cells): +++ (“+++” represents greater than 70% effect)

Source: patent US6699834B1, “Method for treating cancer” (University of Maryland Biotechnology Institute, priority 1997, dated 2004)
